Results reported in BindingDB's records for doi:10.1016/j.bmcl.2009.04.040 (The University of Texas Southwestern Medical Center At …, 2009).

Target: Proto-oncogene Wnt-3 (Homo sapiens, UniProt P56703)
Experiment: Inhibition of Wnt3 expressed in mouse L-cells assessed as inhibition of Wnt/catanin signaling pathway by luciferase reporter gene assay

Chain of Proto-oncogene Wnt-3 (P56703 whole entry): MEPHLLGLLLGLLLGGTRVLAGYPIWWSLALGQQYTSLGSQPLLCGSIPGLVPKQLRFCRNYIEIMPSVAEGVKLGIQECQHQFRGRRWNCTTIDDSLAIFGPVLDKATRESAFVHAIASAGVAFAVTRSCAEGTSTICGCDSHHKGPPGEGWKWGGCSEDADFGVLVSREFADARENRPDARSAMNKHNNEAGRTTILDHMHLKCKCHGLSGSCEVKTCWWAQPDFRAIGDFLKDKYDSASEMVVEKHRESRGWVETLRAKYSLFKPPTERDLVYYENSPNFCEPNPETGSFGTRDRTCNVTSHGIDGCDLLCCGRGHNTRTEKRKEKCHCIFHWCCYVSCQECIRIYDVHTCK

| SMILES | EC50 [µM] |
| --- | --- |
| O=C(Nc1cccc(Br)c1)c1ccc(-n2c(O)c3c(c2O)[C@H]2C=C[C@@H]3C2)cc1 [N-(3-Bromo-phenyl)-4-((1R,2S,6R,7S)-3,5-dioxo-4-aza-tricyclo[5.2.1.0*2,6*]dec-8-en-4-yl)-benzamide] | 9 |
| Cc1ccnc2c(NC(=O)[C@H]3CC[C@H](CN4C(=O)[C@@H]5[C@H](C4=O)[C@@H]4C=C[C@H]5C4)CC3)cccc12 [4-((1R,2S,6R,7S)-3,5-Dioxo-4-aza-tricyclo[5.2.1.0*2,6*]dec-8-en-4-ylmethyl)-cyclohexanecarboxylic acid(4-methyl-quinolin-8-yl)-amide] | > 25 |
| COc1cc(-n2c(O)c3c(c2O)[C@H]2C=C[C@@H]3C2)ccc1C(=O)Nc1cccc2cccnc12 [4-((1R,2S,6R,7S)-3,5-Dioxo-4-aza-tricyclo[5.2.1.0*2,6*]dec-8-en-4-yl)-2-methoxy-N-quinolin-8-yl-benzamide] | > 25 |
| O=C(Nc1cccc(F)c1F)c1ccc(-n2c(O)c3c(c2O)[C@H]2C=C[C@@H]3C2)cc1 [N-(2,3-Difluoro-phenyl)-4-((1R,2S,6R,7S)-dioxo-4-aza-tricyclo[5.2.1.0*2,6*]dec-8-en-4-yl)-benzamide] | > 25 |
| COc1cc(C(=O)Nc2cccc3cccnc23)ccc1-n1c(O)c2c(c1O)[C@H]1C=C[C@@H]2C1 [4-((1R,2S,6R,7S)-3,5-Dioxo-4-aza-tricyclo[5.2.1.0*2,6*]dec-8-en-4-yl)-3-methoxy-N-quinolin-8-yl-benzamide] | > 25 |
| Cc1ccnc2c(NC(=O)[C@H]3CC[C@H](N4C(=O)[C@@H]5[C@H](C4=O)[C@@H]4C=C[C@H]5C4)CC3)cccc12 [4-((1R,2S,6R,7S)-3,5-Dioxo-4-aza-tricyclo[5.2.1.0*2,6*]dec-8-en-4-yl)-cyclohexanecarboxylic acid(4-methyl-quinolin-8-yl)-amide] | 1 |
| O=C(Nc1cc(F)cc(F)c1)c1ccc(-n2c(O)c3c(c2O)[C@H]2C=C[C@@H]3C2)cc1 [N-(3,5-Difluoro-phenyl)-4-((1R,2S,6R,7S)-dioxo-4-aza-tricyclo[5.2.1.0*2,6*]dec-8-en-4-yl)-benzamide] | > 25 |
| O=C(Nc1cccc2cccnc12)N1CCC(N2C(=O)[C@@H]3[C@H](C2=O)[C@@H]2C=C[C@H]3C2)CC1 [4-((1R,2S,6R,7S)-3,5-Dioxo-4-aza-tricyclo[5.2.1.0*2,6*]dec-8-en-4-yl)-piperidine-1-carboxylic acid quinolin-8-ylamide] | 10 |
| O=C(Nc1cccc2cccnc12)c1ccc(-n2c(O)c3c(c2O)[C@H]2C=C[C@@H]3C2)c(Cl)c1 [3-Chloro-4-((1R,2S,6R,7S)-3,5-dioxo-4-aza-tricyclo[5.2.1.0*2,6*]dec-8-en-4-yl)-N-quinolin-8-yl-benzamide] | > 25 |
| O=C(NCc1cccnc1)c1ccc(-n2c(O)c3c(c2O)[C@H]2C=C[C@@H]3C2)cc1 [4-((1R,2S,6R,7S)-3,5-Dioxo-4-aza-tricyclo[5.2.1.0*2,6*]dec-8-en-4-yl)-N-pyridin-3-ylmethyl-benzamide] | > 25 |
| O=C(Nc1cccc(C(F)(F)F)c1)c1ccc(-n2c(O)c3c(c2O)[C@H]2C=C[C@@H]3C2)cc1 [4-((1R,2S,6R,7S)-3,5-Dioxo-4-aza-tricyclo[5.2.1.0*2,6*]dec-8-en-4-yl)--(3-trifluoromethyl-phenyl)-benzamide] | 20 |
| O=C(Nc1ccc(Br)cc1Br)c1ccc(-n2c(O)c3c(c2O)[C@H]2C=C[C@@H]3C2)cc1 [N-(2,4-Dibromo-phenyl)-4-((1R,2S,6R,7S)-dioxo-4-aza-tricyclo[5.2.1.0*2,6*]dec-8-en-4-yl)-benzamide] | > 25 |
